# Laboratory results from PubChem BioAssay AID264 (DTP/NCI, 2004).
# “And” between values parts separate entries of the source, which are not always exact repeats. Identical values can stand only once. Records with an inconclusive call do not appear.
# Tested on: nude mice, LX-1 lung xenograft intrarenal, tumor weight T/C
# Experiment: NCI In Vivo Anticancer Drug Screen. Data for tumor model Human Lung LX-1 Xenograft (intrarenal inoculation) in NU/NU Swiss (nude) mice
# Settings: endpoint: mean tumor weight change, higher = larger tumour
# Outline: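 Tumor-bearing mice receive test compound or vehicle; tumor size is then measured in each group. The treated value is divided by the vehicle value to give T/C.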
structure (smiles),measurement,setting,value
Cc1nc(N)nc(N)c1-c1ccc(Cl)c(Cl)c1,T/C,"dose: 0.16 mg/kg/injection, schedule: Q01DX010 (sc), vehicle: saline",85 % of control
same,T/C,"dose: 0.32 mg/kg/injection, schedule: Q01DX010 (sc), vehicle: saline",111 % of control
same,T/C,"dose: 0.63 mg/kg/injection, schedule: Q01DX010 (sc), vehicle: saline",115 % of control
same,T/C,"dose: 1.25 mg/kg/injection, schedule: Q01DX010 (sc), vehicle: saline",106 % of control
Nc1ccn(C2OC(CO)C(O)C2O)c(=O)n1 (configuration not stated),T/C,"dose: 31.25 mg/kg/injection, schedule: Q01DX010 (sc), vehicle: water",73 % of control and 95 % of control
same,T/C,"dose: 600.0 mg/kg/injection, schedule: Q04DX003 (sc), vehicle: water",47 % of control
same,T/C,"dose: 819.2 mg/kg/injection, schedule: Q04DX003 (sc), vehicle: water",46 % of control
same,T/C,"dose: 1024.0 mg/kg/injection, schedule: Q04DX003 (sc), vehicle: water",61 % of control
same,T/C,"dose: 1200.0 mg/kg/injection, schedule: Q04DX003 (sc), vehicle: water",34 % of control
same,T/C,"dose: 1280.0 mg/kg/injection, schedule: Q04DX003 (sc), vehicle: water",23 % of control
same,T/C,"dose: 1600.0 mg/kg/injection, schedule: Q04DX003 (sc), vehicle: water",20 % of control
COc1cc2c(c(OC)c1OC)-c1ccc(OC)c(=O)cc1[C@@H](NC(=O)CCl)CC2,T/C,"dose: 1.25 mg/kg/injection, schedule: Q04DX003 (sc), vehicle: saline with Tween-80",76 % of control
same,T/C,"dose: 2.5 mg/kg/injection, schedule: Q04DX003 (sc), vehicle: saline with Tween-80",77 % of control
same,T/C,"dose: 5.0 mg/kg/injection, schedule: Q04DX003 (sc), vehicle: saline with Tween-80",42 % of control
CC1=C(C)C(=O)O[C@@H]([C@](C)(O)[C@]2(O)CC[C@@]3(O)[C@@H]4C[C@H]5O[C@]56[C@@H](O)C=CC(=O)[C@]6(C)[C@H]4CC[C@]23C)C1,T/C,"dose: 4.0 mg/kg/injection, schedule: Q01DX010 (sc), vehicle: saline",61 % of control
same,T/C,"dose: 64.0 mg/kg/injection, schedule: Q01DX010 (sc), vehicle: saline",121 % of control
COc1cccc2c1C(=O)c1c(O)c3c(c(O)c1C2=O)C[C@@](O)(/C(C)=N/NC(=O)c1ccccc1)C[C@@H]3OC1CC(N)C(O)C(C)O1 (some centres not stated),T/C,"dose: 2.5 mg/kg/injection, schedule: Q04DX003 (sc), vehicle: water",113 % of control
same,T/C,"dose: 10.0 mg/kg/injection, schedule: Q04DX003 (sc), vehicle: water",68 % of control and 71 % of control and 93 % of control
same,T/C,"dose: 18.75 mg/kg/injection, schedule: Q04DX003 (sc), vehicle: water",57 % of control
same,T/C,"dose: 20.0 mg/kg/injection, schedule: Q04DX003 (sc), vehicle: water",69 % of control and 79 % of control and 87 % of control
same,T/C,"dose: 37.5 mg/kg/injection, schedule: Q04DX003 (sc), vehicle: water",36 % of control
same,T/C,"dose: 40.0 mg/kg/injection, schedule: Q04DX003 (sc), vehicle: water",71 % of control
same,T/C,"dose: 75.0 mg/kg/injection, schedule: Q04DX003 (sc), vehicle: water",18 % of control
same,T/C,"dose: 80.0 mg/kg/injection, schedule: Q04DX003 (sc), vehicle: water",79 % of control
N[C@H](C(=O)O)[C@@H]1CC(Cl)=NO1,T/C,"dose: 2.0 mg/kg/injection, schedule: Q01DX010 (sc), vehicle: saline",16 % of control
same,T/C,"dose: 2.0 mg/kg/injection, schedule: Q01DX010 (sc), vehicle: suspension in saline",30 % of control
same,T/C,"dose: 4.0 mg/kg/injection, schedule: Q01DX010 (sc), vehicle: suspension in saline",33 % of control
same,T/C,"dose: 8.0 mg/kg/injection, schedule: Q01DX010 (sc), vehicle: suspension in saline",45 % of control
same,T/C,"dose: 16.0 mg/kg/injection, schedule: Q01DX010 (sc), vehicle: suspension in saline",15 % of control
CN1C(=O)CC2(CCN(CCCC(=O)c3ccc(F)cc3)CC2)C1=O,T/C,"dose: 18.75 mg/kg/injection, schedule: Q04DX003 (sc), vehicle: suspension in saline",33 % of control
same,T/C,"dose: 75.0 mg/kg/injection, schedule: Q04DX003 (sc), vehicle: suspension in saline",85 % of control
same,T/C,"dose: 150.0 mg/kg/injection, schedule: Q04DX003 (sc), vehicle: suspension in saline",77 % of control
C=CCNc1ccc(C)cc1,T/C,"dose: 12.5 mg/kg/injection, schedule: Q01DX010 (sc), vehicle: Klucel (hydroxypropylcellulose) (HPC)",98 % of control
same,T/C,"dose: 25.0 mg/kg/injection, schedule: Q01DX010 (sc), vehicle: Klucel (hydroxypropylcellulose) (HPC)",171 % of control
same,T/C,"dose: 100.0 mg/kg/injection, schedule: Q01DX010 (sc), vehicle: Klucel (hydroxypropylcellulose) (HPC)",107 % of control
same,T/C,"dose: 200.0 mg/kg/injection, schedule: Q01DX010 (sc), vehicle: Klucel (hydroxypropylcellulose) (HPC)",42 % of control
same,T/C,"dose: 400.0 mg/kg/injection, schedule: Q01DX010 (sc), vehicle: Klucel (hydroxypropylcellulose) (HPC)",72 % of control
Nc1ccc(Cl)cc1N,T/C,"dose: 450.0 mg/kg/injection, schedule: Q04DX003 (sc), vehicle: saline with Tween-80",115 % of control
same,T/C,"dose: 900.0 mg/kg/injection, schedule: Q04DX003 (sc), vehicle: saline with Tween-80",92 % of control
ClCc1ccc2ccccc2n1,T/C,"dose: 150.0 mg/kg/injection, schedule: Q04DX003 (sc), vehicle: saline with Tween-80",158 % of control
same,T/C,"dose: 300.0 mg/kg/injection, schedule: Q04DX003 (sc), vehicle: saline with Tween-80",105 % of control
same,T/C,"dose: 600.0 mg/kg/injection, schedule: Q04DX003 (sc), vehicle: saline with Tween-80",77 % of control
